Patent publication US4839343A, “Preparation containing hexatriacontapeptides and methods of use” (Debiopharm, S.A., priority 1987, dated 1989)

What was measured:
[1] = tested on: Conscious normotensive rats; assay: Pressor response to norepinephrine in conscious normotensive rats infused with endotoxin and/or NPY; type: in vivo, rat
Description: Conscious normotensive rats were divided into six groups. Rats of Group II and IV were infused intravenously with NPY (0.1 mcg/min for 75 min). A further two groups of rats (I and III) received the vehicle of the peptide ([…]) for the same period. Escherichia Coli endotoxin (lipopolysaccharide E. Coli 0.111: B4, Difco Laboratories, Detroit, MI), 10 mcg/10 mcl/min was infused starting 15 min after the beginning of the NPY-infusion (Group IV) or its vehicle (Group III). The remaining rats (Groups I and […]) were given the vehicle of endotoxin, 10 mcl/min i.v. In all these rats, a dose-response curve to intravenous injections of norepinephrine was obtained 5 min after ending the administration of NPY. The infusion of endotoxin or its vehicle was continued throughout this period. In two additional groups rats infused for 45 min with endotoxin or its vehicle, a 2 ml blood sample was obtained via the arterial catheter for determination of plasma NPY levels.
The endotoxin was dissolved in 0.9% NaCl to achieve a concentration of […]. NPY was diluted with 0.1M HCl to a concentration of 10 mg/l. Aliquots containing 15 mcg were stored frozen at -70° C. and thawed immediately before use. The different solutions were infused using a syringe pump (Model 455, Sage Instrument, White Plains, NY). Norepinephrine (Arterenol, Hoechst, Frankfurt-am-Main, FRG) was diluted in 0.9% NaCl to attain a concentration of 20 ng/20 mcl. Using a 250 mcl glass syringe (Hamilton), the dose of norepinephrine was increased by altering the volume injected.

[2] = tested on: Normotensive male Wistar rats; assay: Endotoxin-induced blood pressure fall in adrenal-demedullated conscious rats, i.v. NPY infusion; type: in vivo, rat
Description: Normotensive male Wistar rats were subjected to adrenal demedullation on the right side and either adrenolectomized or sham-operated on the left side. Ten days later a solution of NPY in non-alkaline saline was given as an intravenous infusion (70 ng/min) to these conscious semi-restrained animals. A group of control animals received only the saline diluent. During the last 75 minutes of the experiment, endotoxin (LPs E. Coli 0111: B4, 10 mcg/min i.v.) was administered both in NPY-treated and control animals.

[3] = tested on: patient seriously affected by bacteremic (endotoxic) shock; assay: Treatment of patient with bacteremic (endotoxic) shock by intravenous peptide infusion; type: in vivo, human
Description: A patient seriously affected by bacteremic (endotoxic) shock was admitted in an intensive care unit and treated with dopamine given intravenously at doses of 10 and 20 mcg/kg/min.
A solution of NPY was then given by intravenous infusion at increasing doses of 0.01 to 50 pmol/kg/min over a period of 10 hours.

Row | Compound | pressor effects of norepinephrine after NPY infused alone (Group II) versus control (Group I) ([1]; NPY 0.1 mcg/min i.v. 75 min, norepinephrine 20, 40, 80, 160 ng, p<0.001, <0.01, <0.001, <0.05) | blood pressure response to norepinephrine in endotoxin plus NPY rats (Group IV) versus control rats (Group I) ([1]; NPY 0.1 mcg/min i.v. 75 min plus endotoxin, all norepinephrine doses tested) | blood pressure response to norepinephrine in endotoxin-treated rats (Group IV) versus endotoxin alone (Group III) ([1]; NPY 0.1 mcg/min i.v. 75 min plus endotoxin, norepinephrine 20, 40, 80, 160 ng i.v., p<0.05, <0.01, <0.01, <0.05) | effect on blood pressure or heart rate before norepinephrine injections ([1]; NPY 0.1 mcg/min i.v. for 75 min, alone or in combination with endotoxin 10 mcg/min) | duration of NPY-induced facilitation of norepinephrine evoked changes in blood pressure ([1]; last norepinephrine dose given 50 min after stopping the NPY infusion) | reduction of intraarterial mean blood pressure during endotoxin infusion ([2]; NPY 70 ng/min i.v. infusion, endotoxin 10 mcg/min i.v. for last 75 min, 12 rats, baseline 116±1.6 mm Hg, controls dropped 40±6.4 mm Hg, 2 of 9 died) [mm Hg] | effect of NPY infusion alone on blood pressure ([2]; another group of rats, NPY 70 ng/min i.v., no endotoxin) | effect on concomitant dopamine dose ([3]; NPY i.v. infusion 0.01 to 50 pmol/kg/min over 10 hours, each time tachycardia was observed) | arterial pressure of the patient ([3]; NPY i.v. infusion, increasing doses 0.01 to 50 pmol/kg/min over 10 hours, with dopamine) | arterial pressure of the patient under dopamine alone ([3]; dopamine i.v. 10 and 20 mcg/kg/min, before NPY)
1 | neuropeptide Y [NPY] | significantly enhanced | no longer any significant difference | significantly greater than in those animals receiving endotoxin alone | no significant effect on blood pressure or heart rate | long-lasting | 8±2.1 | no significant effect on blood pressure | allowed a decrease in the dose of dopamine | normalization of arterial pressure | –
2 | NCCc1ccc(O)c(O)c1 [dopamine, reference compound] | – | – | – | – | – | – | – | – | – | continued to fall
